According to patent publication US20240165093A1, “METHODS FOR TREATING FAMILIAL CHYLOMICRONEMIA SYNDROME” (AMRYT PHARMACEUTICALS INC., priority 2021, published 2024):
“And” between values parts separate entries of the source, which are not always exact repeats. Equal entries are not always repeated.

Experiments:
[1] = test system: patients with Familial Chylomicronemia Syndrome (FCS); experiment: Clinical study of lomitapide in patients with FCS: fasting lipids, lipoproteins, pancreatitis episodes (26 weeks); type: in vivo
From the text: This clinical study evaluated the safety, tolerability, and efficacy of Lomitapide in patients with Familial Chylomicronemia Syndrome (FCS).
Patients were screened for eligibility between 12 to 6 weeks before the first dose of Lomitapide (screening period). After screening period, all enrolled patients entered a run-in phase of at least 6 weeks during which lipid-lowering therapy, daily dietary supplementation of vitamin E, essential fatty acids and a low-fat diet are instituted and stabilized. At the end of the run-in phase, the patients entered into a 26-week efficacy phase, during which they receive lomitapide in addition to their lipid-lowering therapy. Patients must follow a diet comprising <10% energy from fat per day during all the study.
All patients who meet the eligibility criteria, and after 6-week diet period (run-in) were treated with Lomitapide 5 mg, 10 mg, 15 mg, 20 mg, 30 mg, 40 mg, 50 mg up to 60 mg daily based on lipid profile and tolerability. Patients remain at their maximum dose until the end of 26 weeks.
(§1) Treatment was initiated at 5 mg once daily, and the dose titrated based on acceptable safety/tolerability. After a minimum of 2 weeks at 5 mg once daily the dose was then titrated at a minimum of 4-week intervals to 10 mg, 20 mg, 40 mg, and 60 mg/day (e.g., as shown in the table below) or until an individually determined maximum dose (e.g., in the range of 5-60 mg/day) was reached based on lipid profile, and safety/tolerability. Dose adjustments were also made according to liver transaminase levels. If subjects experienced confirmed alanine aminotransferase (ALT) or aspartate aminotransferase (AST) elevations between 3-5×ULN, or >100 U/L but <200 U/L above the baseline value, the dose of lomitapide was reduced to the previously tolerated dose level, with the possibility to re-escalate dose once transaminase elevations were resolved. Once a maximum dose was established, patients remained on this dose up to Week 26.
(§2) Lipid levels and safety indices, including liver function tests, were evaluated at baseline, before each dose increase, and then every 4 weeks until week 26.
The Primary Endpoint was percent change in tryglycerides (TG) at the maximum tolerated dose compared to baseline after 26 weeks of treatment in combination with other lipid lowering therapy in patients with Familial Chylomicronemia Syndrome (FCS).
(§3) Secondary endpoints include other lipid parameters, hepatic fat and liver stiffness and Chylomicron kinetics of Lomitapide in combination with other lipid lowering agents in term of changes at 26 weeks from baseline. Including: • a) Percent change in TC, non-HDL-C, LDL-C, VLDL, Lp(a), as well as apolipoproteins B and A1. • b) Safety of Lomitapide in patients with FCS assessed by changes in laboratory parameters, electrocardiogram, physical examinations and weight. • c) Record of episodes of pancreatitis • d) Change in hepatic fat liver stiffness measured by MRI and/or Transient Elastography (Fibroscan). • e) Chylomicron kinetics.
To enable collection of data for the primary and other endpoints a fasting lipid and safety panel, including liver function tests, was obtained at baseline, prior to each dose escalation, and every 4 weeks thereafter until Week 26. Blood was drawn at baseline and at each visit following a 12 hour fast. Testing included a standard metabolic panel, a complete blood count, urinalysis. Ten patients underwent a metabolic study to determine postprandial chylomicron metabolism and fatty acid profile. Available samples were separated by centrifugation and immediately stored at −80° C. and were shipped in dry ice at the end of the study for analysis.
Lipid and lipoprotein analyses were conducted on serum samples. Total cholesterol (TC), high density lipoprotein-cholesterol (HDL-C), and TGs were measured enzymatically. Non-HDL-C was calculated by subtracting HDL-C levels from TC levels. ApoA-I, apoB and Lp(a) were measured by immunonephelometry. […]

[2] = test system: patients with Familial Chylomicronemia Syndrome (FCS); experiment: Clinical study in FCS patients: hepatic fat (MRI), liver stiffness, NFS and FIB-4 scores; type: in vivo, human
From the text: as §3
Percentage hepatic fat was determined by magnetic resonance imaging (MRI) at baseline and Week 26. The MRI protocol included a dual-phase sequence and the IDEAL IQ sequence. Post-processing software, provided by the manufacturer, was used to generate fat fraction maps. A radiologist trained in abdominal imaging imaged four 1 cm^2 regions of interest (ROIs) to measure in-phase signal intensities of the liver parenchyma. ROIs were copied from the in-phase images to the opposed-phase to ensure identical size and location. Focal hepatic lesions, major branches of portal or hepatic veins, and artifacts were avoided. The mean of the signal intensity of the liver was calculated as the average value of the four signal intensities of the liver parenchyma both in the in-phase and in the opposed phase. The hepatic fat fraction was then calculated with the following formula: 100×(signal intensityIP−signal intensityOP)/(2×signal intensityIP). Finally, ROIs were also copied in the HFF Axial IDEAL IQ map to ensure identical size and location (this map was not available in one patient). The liver ROIs placed on the IDEAL-IQ fat fraction reconstruction were used to generate estimates of percentage fat.
Noninvasive quantification of liver stiffness (LSM) in kPa (estimated fibrosis score: F0 to F1: 2-7 kPa; F2: 7.5-10 kPa; F3: 10-14 kPa; F4: […]) was measured by ultrasound-based transient elastography using FibroScan® or shear wave elastography. Non-alcoholic fatty liver disease fibrosis score (NFS) and fibrosis-4 (FIB-4) score were calculated according to Angulo et al (2007) (Angulo P, Hui J M, Marchesini G, et al. The NAFLD fibrosis score: a noninvasive system that identifies liver fibrosis in patients with NAFLD. Hepatology 2007; 45(4), which is incorporated by reference herein.
Numeric parameters were expressed as median values and 97.5% confidence intervals, while dichotomous variables were expressed as proportions. Differences in numeric parameters were evaluated by the Exact Wilcoxon-Mann-Whitney Test (R CRAN “coin” package). Differences in proportions were evaluated by the Chi Square test. Percentual reductions of numeric variables at Week 26 were expressed as median values (with 97.5% confidence intervals) of the individual patients' variations from Week 0. Correlation of TG percent reduction with lomitapide dose was calculated by partial Spearman's correlation adjusting for TG baseline absolute values (R CRAN ‘ppcor’ package). All calculations were performed by the R statistical software Version 4.04 under the RStudio Version 1.3.1093 interface.

[3] = test system: patients with Familial Chylomicronemia Syndrome (FCS); experiment: Clinical study in FCS patients: safety and tolerability (adverse events, liver function tests, maximum dose); type: in vivo, human
Description: as §1, §2, §3
Adverse events (AEs) were coded using MedDRA, Version 11.0. AEs were judged by the investigators as not related, unlikely, possibly, probably or definitely related to study drug and were reviewed regularly by an independent Data and Safety Monitoring Board.

[4] = 18 subjects, baseline to Week 26

O=C(NC1CCN(CCCCC2(C(=O)NCC(F)(F)F)c3ccccc3-c3ccccc32)CC1)c1ccccc1-c1ccc(C(F)(F)F)cc1 [lomitapide, N-(2,2,2-trifluoroethyl)-9-[4-[4-[[[4′(trifluoromethyl) [1,1′-biphenyl]-2-yl]carbonyl]amino]-1-piperidinyl]butyl]-9H-fluorene-9carboxamide]
episodes of acute pancreatitis or severe abdominal pain during treatment ([1]; 26 weeks, all patients with history of acute pancreatitis): No patient experienced an episode of acute pancreatitis or severe abdominal pain | range of TG decrease in the six subjects with decreases up to 50% ([1]; Week 26): 18.25-49.71% | reduction in TG levels from baseline ([1]; Week 26, n=18, p<0.0001): 70.5% | patients with TG reduction >70% ([1]; Week 26, nine of 18 patients): 50% | subjects achieving TG levels <750 mg/dL (<8.5 mmol/L) ([1]; Week 26, of 18): Thirteen | subjects with decreases in TG up to 50% ([1]; Week 26, six of 18 subjects): 33.3% | patients achieving TG levels <500 mg/dL (<5.6 mmol/L) ([1]; Week 26, ten of 18): 55.6% | patients with TG reduction >50% ([1]; Week 26, twelve of 18 patients): 66.7% | mean dose when patients crossed the threshold of <500 mg/dL triglycerides ([1]; daily dose): 27 mg | mean dose when patients crossed the threshold of <750 mg/dL triglycerides ([1]; daily dose): 24 mg | mean dose when patients crossed the threshold of <1000 mg/dL triglycerides ([1]; daily dose): 18 mg | median dose when patients crossed the threshold of <500 mg/dL triglycerides ([1]; daily dose): 20 mg | median dose when patients crossed the threshold of <750 mg/dL triglycerides ([1]; daily dose): 20 mg | median dose when patients crossed the threshold of <1000 mg/dL triglycerides ([1]; daily dose): 10 mg | Lp(a) levels, difference from baseline to Week 26 ([1]; in words): No significant differences | hsCRP levels, difference from baseline to Week 26 ([1]; in words): No significant differences | fasting triglyceride levels compared to baseline ([1]; in words, over 26 weeks): significant reduction | patients achieving triglyceride plasma levels <1000 mg/dL ([1]; n=14 of 18): 77.8% | hsCRP, median at Week 26 ([1]; n=18, Week 26 (baseline 1.2)): 1.24 mg/L | Lp(a), median at Week 26 ([1]; n=18, Week 26 (baseline 6)): 5.5 nmol/L | HDL-C, median at Week 26 ([1]; n=18, Week 26 (baseline 16)): 18 mg/dL | ApoB, median at Week 26 ([1]; n=18, Week 26 (baseline 81.85)): 39.25 mg/dL | ApoA-I, median at Week 26 ([1]; n=18, Week 26 (baseline 93.7)): 74.95 mg/dL | non-HDL-C, median at Week 26 ([1]; n=18, Week 26 (baseline 184)): 90.0 mg/dL | TC, median at Week 26 ([1]; n=18, Week 26 (baseline 205.5)): 94 mg/dL | ApoA-I, median of individual changes from baseline % ([1]; n=18, baseline to Week 26): −28.1% and −23.0% | ApoB, median of individual changes from baseline % ([1]; n=18, baseline to Week 26): −43.8% | HDL-C, median of individual changes from baseline % ([1]; n=18, baseline to Week 26): 20.7% and +20.7% | Lp(a), median of individual changes from baseline % ([1]; n=18, baseline to Week 26): +40.5% | TC, median of individual changes from baseline % ([1]; n=18, baseline to Week 26): −51.7% | hsCRP, median of individual changes from baseline % ([1]; n=18, baseline to Week 26): 9.8% | non-HDL-C, median of individual changes from baseline % ([1]; n=18, baseline to Week 26): −50.0% | TG, median of individual changes from baseline % ([1]; n=18, baseline to Week 26, primary endpoint): −70.5% | TG, median at Week 26 ([1]; n=18 FCS patients, fasting, lomitapide at maximum tolerated dose plus lipid-lowering therapy, Week 26 (baseline 1803.5)): 305.0 mg/dL | Hepatic fat content on MRI, median at Week 26 ([2]; 9 subjects, Week 26 (baseline 12.0)): 32.5% | Hepatic fat content on MRI, individual change from baseline, % ([2]; 9 subjects, baseline to Week 26): +146.4% | LSM (liver stiffness measurement), median at Week 26 ([2]; 14 subjects, Week 26 (baseline 5.7)): 5.5 kPa | FIB-4, median at Week 26 ([2]; 18 subjects, Week 26 (baseline 0.76)): 1.03 | NFS, median at Week 26 ([2]; 18 subjects, Week 26 (baseline 0.786)): 0.428 | FIB-4, individual change from baseline, % [2, 4]: +38.44% | NFS, individual change from baseline, % [2, 4]: −51.69% | non-invasive liver fibrosis measurements (liver stiffness, FIB-4 and NFS scores), change ([2]; baseline to Week 26, in words): No significant changes | hepatic fat content at week 26 in 3 patients with an increase ([2]; liver MRI): 30-50% | patients completing the study (26 weeks) ([3]; 18 enrolled): 100% | elevations in bilirubin or alkaline phosphatase levels ([3]; 26 weeks): No subject experienced elevations | tolerability of treatment ([3]; 26 weeks, in words): well tolerated | permanent discontinuation due to liver transaminase elevations ([3]; increases managed by dose reduction or temporary interruption): No subject discontinued treatment permanently | median lomitapide maximum dose ([3]; individually determined by lipid profile, safety and tolerability, by Week 26, 18 subjects): 35 mg/day | severity of adverse events ([3]; mostly gastrointestinal tolerability and liver enzyme elevations): mild to moderate
